In patent publication US20070293553A1, “Diphenylurea Derivatives Useful As Potassium Channel Activators” (priority 2004, published 2007):

Structure (SMILES) | melting point
O=C(Nc1ccccc1Br)Nc1ccc(-c2ccc(Cl)cc2)cc1-c1nnn[nH]1 [Compound 3-22, N-(2-Bromo-phenyl)-N′-[4′-chloro-3-(1H-tetrazol-5-yl)-biphenyl-4-yl]-urea] | 255 to 256 °C
O=C(Nc1ccccc1F)Nc1ccc(-c2ccc(Cl)cc2)cc1-c1nnn[nH]1 [Compound 3-25, N-(2-Fluoro-phenyl)-N′-[4′-chloro-3-(1H-tetrazol-5-yl)-biphenyl-4-yl]-urea] | 257 to 259 °C
O=C(Nc1cccc(C(F)(F)F)c1)Nc1ccc(-c2ccc(Cl)cc2)cc1-c1nnn[nH]1 [Compound 3-2, N-(3-Trifluoromethyl-phenyl)-N′-[4′-chloro-3-(1H-tetrazol-5-yl)-biphenyl-4-yl]-urea] | 253 to 254 °C
O=C(Nc1ccc(F)c(C(F)(F)F)c1)Nc1ccc(-c2ccc(Cl)cc2)cc1-c1nnn[nH]1 [Compound 3-15, N-(4-Fluoro-3-trifluoromethyl-phenyl)-N′-[4′-chloro-3-(1H-tetrazol-5-yl)-biphenyl-4-yl]-urea] | 243 to 245 °C
O=C(Nc1cc(F)cc(F)c1)Nc1ccc(-c2ccc(OC(F)(F)F)cc2)cc1-c1nnn[nH]1 [Compound 3-35, N-(3,5-Difluoro-phenyl)-N′-[3-(1H-tetrazol-5-yl)-4′-trifluoromethoxy-biphenyl-4-yl]-urea] | 238 to 241 °C
O=C(Nc1ccccc1F)Nc1ccc(-c2ccc(C(F)(F)F)cc2)cc1-c1nnn[nH]1 [Compound 3-24, N-(2-Fluoro-phenyl)-N′-[3-(1H-tetrazol-5-yl)-4′-trifluoromethyl-biphenyl-4-yl]-urea] | 251 to 252 °C
O=C(Nc1ccc(Cl)c(C(F)(F)F)c1)Nc1ccc(-c2ccc(F)cc2)cc1-c1nnn[nH]1 [Compound 3-9, N-(4-Chloro-3-trifluoromethyl-phenyl)-N′-[4′-fluoro-3-(1H-tetrazol-5-yl)-biphenyl-4-yl]-urea] | 247 to 249 °C
O=C(Nc1ccccc1Br)Nc1ccc(-c2ccc(C(F)(F)F)cc2)cc1-c1nnn[nH]1 [Compound 3-20, N-(2-Bromo-phenyl)-N′-[3-(1H-tetrazol-5-yl)-4′-trifluoromethyl-biphenyl-4-yl]-urea] | 242 to 243 °C
O=C(Nc1ccc(-c2ccc(Cl)cc2)cc1-c1nnn[nH]1)Nc1ccccc1C(F)(F)F [Compound 3-21, N-(2-Trifluoromethyl-phenyl)-N′-[4′-chloro-3-(1H-tetrazol-5-yl)-biphenyl-4-yl]-urea] | 290 to 292 °C
O=C(Nc1cc(Cl)cc(Cl)c1)Nc1ccc(-c2ccc(F)cc2)cc1-c1nnn[nH]1 [Compound 3-10, N-(3,5-Dichloro-phenyl)-N′-[4′-fluoro-3-(1H-tetrazol-5-yl)-biphenyl-4-yl]-urea] | 241 to 243 °C
O=C(Nc1cc(F)cc(F)c1)Nc1ccc(-c2cccc(C(F)(F)F)c2)cc1-c1nnn[nH]1 [Compound 3-38, N-(3,5-Difluoro-phenyl)-N′-[3-(1H-tetrazol-5-yl)-3′-trifluoromethyl-biphenyl-4-yl]-urea] | 255 to 257 °C
O=C(Nc1cc(C(F)(F)F)cc(C(F)(F)F)c1)Nc1ccc(-c2ccc(F)cc2)cc1-c1nnn[nH]1 [Compound 3-16, N-(3,5-Bis-trifluoromethyl-phenyl)-N′-[4′-fluoro-3-(1H-tetrazol-5-yl)-biphenyl-4-yl]-urea] | 251 to 253 °C
Cc1ccc(-c2ccc(NC(=O)Nc3ccccc3Br)c(-c3nnn[nH]3)c2)cc1 [Compound 3-29, N-(2-Bromo-phenyl)-N′-[4′-methyl-3-(1H-tetrazol-5-yl)-biphenyl-4-yl]-urea] | 255 to 257 °C
O=C(Nc1ccccc1Cl)Nc1ccc(-c2ccc(Cl)cc2)cc1-c1nnn[nH]1 [Compound 3-32, N-(2-Chloro-phenyl)-N′-[4′-chloro-3-(1H-tetrazol-5-yl)-biphenyl-4-yl]-urea] | 255 to 257 °C
O=C(Nc1ccc(F)c(C(F)(F)F)c1)Nc1ccc(-c2ccc(C(F)(F)F)cc2)cc1-c1nnn[nH]1 [Compound 3-12, N-(4-Fluoro-3-trifluoromethyl-phenyl)-N′-[3-(1H-tetrazol-5-yl)-4′-trifluoromethyl-biphenyl-4-yl]-urea] | 247 to 249 °C
O=C(Nc1cc(F)cc(F)c1)Nc1ccc(-c2ccc(Cl)cc2)cc1-c1nnn[nH]1 [Compound 3-5, N-(3,5-Difluoro-phenyl)-N′-[4′-chloro-3-(1H-tetrazol-5-yl)-biphenyl-4-yl]-urea] | 250 to 251 °C
O=C(Nc1cc(Cl)cc(Cl)c1)Nc1ccc(-c2ccc(Cl)cc2)cc1-c1nnn[nH]1 [Compound 3-4, N-(3,5-Dichloro-phenyl)-N′-[4′-chloro-3-(1H-tetrazol-5-yl)-biphenyl-4-yl]-urea] | 231 to 234 °C
O=C(Nc1ccc(-c2ccc(C(F)(F)F)cc2)cc1-c1nnn[nH]1)Nc1ccccc1C(F)(F)F [Compound 3-18, N-(2-Trifluoromethyl-phenyl)-N′-[3-(1H-tetrazol-5-yl)-4′-trifluoromethyl-biphenyl-4-yl]-urea] | 240 to 243 °C
O=C(Nc1cc(F)cc(F)c1)Nc1ccc(-c2ccc(C(F)(F)F)cc2)cc1-c1nnn[nH]1 [Compound 3-7, N-(3,5-Difluoro-phenyl)-N′-[3-(1H-tetrazol-5-yl)-4′-trifluoromethyl-biphenyl-4-yl]-urea] | 245 to 247 °C
O=C(Nc1ccc(Cl)c(C(F)(F)F)c1)Nc1ccc(-c2ccc(Cl)cc2)cc1-c1nnn[nH]1 [Compound 3-3, N-(4-Chloro-3-trifluoromethyl-phenyl)-N′-[4′-chloro-3-(1H-tetrazol-5-yl)-biphenyl-4-yl]-urea] | 242 to 243 °C
COc1ccc(-c2ccc(NC(=O)Nc3cc(F)cc(F)c3)c(-c3nnn[nH]3)c2)cc1 [Compound 3-41, N-(3,5-Difluoro-phenyl)-N′-[4′-methoxy-3-(1H-tetrazol-5-yl)-biphenyl-4-yl]-urea] | 129 to 133 °C
O=C(Nc1cc(C(F)(F)F)cc(C(F)(F)F)c1)Nc1ccc(-c2ccc(OC(F)(F)F)cc2)cc1-c1nnn[nH]1 [Compound 3-37, N-(3,5-Bis-trifluoromethyl-phenyl)-N′-[3-(1H-tetrazol-5-yl)-4′-trifluoromethoxy-biphenyl-4-yl]-urea] | 238 to 240 °C
O=C(Nc1cccc(Br)c1)Nc1ccc(-c2ccc(C(F)(F)F)cc2)cc1-c1nnn[nH]1 [Compound 3-43, N-(3-Bromo-phenyl)-N′-[3-(1H-tetrazol-5-yl)-4′-trifluoromethyl-biphenyl-4-yl]-urea] | 203 to 210 °C
O=C(Nc1cc(C(F)(F)F)cc(C(F)(F)F)c1)Nc1ccc(-c2cccc(C(F)(F)F)c2)cc1-c1nnn[nH]1 [Compound 3-40, N-(3,5-Bis-trifluoromethyl-phenyl)-N′-[3-(1H-tetrazol-5-yl)-3′-trifluoromethyl-biphenyl-4-yl]-urea] | 250 to 252 °C
COc1ccc(-c2ccc(NC(=O)Nc3cc(Cl)cc(Cl)c3)c(-c3nnn[nH]3)c2)cc1 [Compound 3-34, N-(3,5-Dichloro-phenyl)-N′-[4′-methoxy-3-(1H-tetrazol-5-yl)-biphenyl-4-yl]-urea] | 200 to 201 °C
O=C(Nc1cc(F)cc(F)c1)Nc1ccc(-c2ccc(F)cc2)c(-c2nnn[nH]2)c1 [Compound 3-11, N-(3,5-Difluoro-phenyl)-N′-[4′-fluoro-2-(1H-tetrazol-5-yl)-biphenyl-4-yl]-urea] | 255 to 256 °C
